Source: patent US20240103006A1 (Roche Diagnostics Operations, Inc., priority 2021, published 2024)
Converted amounts (≈) assume the structure as drawn. Marks after values point to notes of the source that are not given here.

Experiments:
[1] = UV-vis spectral properties / extinction coefficients in aqueous buffer; type: physicochemical; settings: probe before addition of Cys; for ε of long-wavelength band of probe / ε of short-wavelength band(s) of probe / λmax, long-wavelength band of probe / λmax, short-wavelength band(s) of probe: 25 mM HEPES pH 7.4
Procedure: Absorption spectra were recorded on a Cary 50 UV-vis spectrometer from Varian. All measurements were performed in 1 cm UV-vis disposable cuvettes (BRAND semi-micro) and air-equilibrated solutions at 25±0.1° C. A total assay volume of 1.0 mL was used for each measurement. UV-vis scan spectra were recorded using following parameters: average time 0.05 s; data interval 1 nm; scan rate 1200 nm/min; with base line correction.
(§1) Stock solutions of assayed compounds (2-5 mM) were prepared in H2O-DMSO (1:1), stored at −20° C., and diluted to 1.0 mM with buffer before use. The L-Cys stock solution (20.0 mM) was freshly prepared in buffer before the measurements. […]
For a measurement, 1000 μL of buffer and 1-50 μL of probe (1.0 mM) were mixed, and then transferred to a cuvette. Absorbance spectra (250-800 nm) were measured against a blank of the buffer. At least six concentrations of each compound were used to calculate extinction coefficients from the slope of probe concentration vs absorbance plots, using MS Excel software (Microsoft).

[2] = Cys-response screening by UV-vis (cleavage of acryloyl ester by excess Cys); settings: for ε^Cys / λ^Cys: after excess Cys (100 μM), 37° C., 15 min; for SNR: from ε^Cys and ε^blank
Procedure: as §1
In the same manner, ε^Cys was determined from the solutions of probe reacted with an excess of Cys (100 μM). The reactions were performed at 37° C. (incubation time 15 min). Blank reactions were run without addition of Cys.
Spectra recorded in the presence of Cys confirmed a colorimetric response through the cleavage of acryloyl ester. […] Moreover, their spectral profiles were advantageously fulfilling the wavelength requirement for the Cys sensing application in Cedex system (340, 378, 409, 480, 512, 520, 552, 583, 629, 652, 659 and 800 nm).

[3] = Evaluation of stability (hydrolysis of probe in buffer, UV-vis); type: physicochemical; settings: 25 mM HEPES pH 7.4, 15.6 μM, 5 h, ε from merocyanine analogues (LZ07: ε from Table 2)
Procedure: For a measurement, 1000 μL of buffer and 16 μL of probe (1.0 mM) were mixed, and then incubated at +4° C. and at +37° C. for 5 h. The resulting mixtures were transferred to a cuvette, and the absorbance (250-800 nm) was measured. Each measurement was done in triplicate.
[…] Solutions of each probe were monitored by UV-vis for 5 h.

[4] = Evaluation of solubility in water; type: physicochemical; settings: for Solubility (by weight) / Solubility (by UV-vis): H2O at RT; for Solubility (by weight): calculated from isolated pellet weight; for Solubility (by UV-vis): supernatant read in 25 mM HEPES pH 7.4
Procedure: In the experiments, 5-10 mg of dried material was suspended in 250-500 μL of H2O at RT. The resulting suspension was centrifuged for 10 min at RT (16000 rcf). UV-vis of supernatant were recorded in buffer (25 mM HEPES pH 7.4) at RT. Each measurement was done in triplicate. The pellet was dried in vacuo for 16 h, and then weighed.
The aqueous solubility of probes is another important property for the performance of compounds in biological assays. The inventors determined the solubility in water of the probes according to the invention using UV-vis. First, oversaturated mixtures of each probe were prepared. The mixtures were centrifuged, and then the concentrations in probes of supernatant were examined by UV-vis. To further validate the results, the concentrations were calculated from the isolated pellet weight.

[5] = Probe performance in Cedex Bio HT: Cys sensing in a feed medium
Procedure: The rapid kinetic profile, stability and low background signal as obtained were encouraging to further use MF70 for Cys-sensing in Cedex Bio HT. Reagent solution was treated with various Cys-concentrations (0.5-7.6 mM) in a feed medium, which is used for monoclonal antibody production. […] Under these conditions, a reliable response was obtained over the period of one week (Table 5), with corresponding detection limit of 3.6 μM Cys, and limit of blank 2.2 μM Cys.

Compound	ε of long-wavelength band of probe [1] [mM⁻¹ cm⁻¹]	ε of short-wavelength band(s) of probe [1] [mM⁻¹ cm⁻¹]	λmax, long-wavelength band of probe [1] [nm]	λmax, short-wavelength band(s) of probe [1] [nm]	ε^Cys ([2]; 25 mM HEPES pH 7.4) [mM⁻¹ cm⁻¹]	λ^Cys ([2]; 25 mM HEPES pH 7.4) [nm]	SNR ([2]; 25 mM HEPES pH 7.4)	Hydrolysis @4° C. [3] [%]	Hydrolysis @37° C. [3] [%]	Solubility (by weight) [4] [mM]	Solubility (by UV-vis) [4] [mM]	ε^Cys ([2]; same buffer at pH 8.0) [mM⁻¹ cm⁻¹]	λ^Cys ([2]; same buffer at pH 8.0) [nm]	SNR ([2]; same buffer at pH 8.0)	ε of short-wavelength band of probe ([1]; same buffer at pH 8.0) [mM⁻¹ cm⁻¹]	λmax, short-wavelength band of probe ([1]; same buffer at pH 8.0) [nm]	aqueous solubility (in words) ([4]; in comparison to LZ05 and MF59)	detection limit [5] [μM Cys]	limit of blank [5] [μM Cys]
C=CC(=O)Oc1ccc(/C=C/C2=[N+](CCCCS(=O)(=O)[O-])c3ccccc3C2(C)C)cc1 [LZ05, reference compound]	1.3	17.3	527	389	31.9	527	12	8.4 ± 0.2	36.9 ± 0.4	12 (≈ 5440 µg/mL)	11.0 ± 1.0 (≈ 4990 µg/mL)								
C=CC(=O)Oc1ccc(/C=C/C2=[N+](C)c3ccccc3C2(C)C)cc1 [LZ07, reference compound]	0.6	16.9	520	383	31.5	520	16	7.3 ± 0.1	30.1 ± 0.2	17	15.4 ± 1.5								
C=CC(=O)Oc1c(C)cc(/C=C/C2=[N+](CCCCS(=O)(=O)[O-])c3ccccc3C2(C)C)cc1C [MF59]	0.7	16.7	550	391	17.9	550	20	1.2 ± 0.0	4.7 ± 0.1	2 (≈ 963 µg/mL)	5.8 ± 0.2 (≈ 2790 µg/mL)	52.9	550	44**					
C=CC(=O)Oc1c(C)cc(/C=C/C2=[N+](CCCS(=O)(=O)O)c3ccc(S(=O)(=O)[O-])cc3C2(C)C)cc1C [MF70]		21.9		400	23.6	556	118	0.2 ± 0.0	0.8 ± 0.0	≥47	≥41	55.8	556	140**	16.6	400	highly water-soluble	3.6	2.2
C=CC(=O)Oc1c(OC)cc(/C=C/C2=[N+](CCCCS(=O)(=O)[O-])c3ccccc3C2(C)C)cc1OC [MF72]		14.2		396	31.0	575	103	0.8 ± 0.1	2.8 ± 0.1										
